According to patent publication EP2450458B1, “Novel microorganisms producing a thermostable lipase and their use” (Universiti Putra Malaysia (UPM), priority 2010, dated 2012):
Where “and” joins values, the source holds several entries; their conditions need not be identical. Identical values can stand only once.

Tests used:
[1] = test system: purified recombinant ARM thermostable lipase; assay: Lipase organic solvent-stability; type: biochemical, Geobacillus sp. strain ARM; settings: solvent 30% v/v, 30 min at 30°C, 150 rpm; assay at 65°C
Procedure: Aliquots of the enzyme were incubated with the solvents (30%, v/v) for 30 min at 30°C with shaking at 150 rpm. […] The stability was expressed as the remaining lipolytic activity relative to that of the control (without solvent). The relative activity was measured at 65°C as described before.

[2] = values in parenthesis used to select the solvents; cited from earlier work
[3] = test system: purified recombinant ARM thermostable lipase; assay: Effect of metal ions on lipase activity; type: biochemical, Geobacillus sp. strain ARM; settings: pre-incubation 30 min at 30°C, assay at 65°C
Procedure: To determine the effects of metal ions on the lipase activity, the purified enzyme was pre-incubated for 30 min at 30°C with various metal ions. Two concentrations (1 and 5 mM) of each of the following ions were used: CO^2+, CU^2+, Mg^2+, Ni^2+, Mn^2+, Zn^2+ Fe^2+, Ca^2+, Sr^2+, K^+, Na^+, Rb^+ and Ag^+. All salts were dissolved in MOPS buffer (50 mM, pH 8.0) (Aslamkhan et al., 2002). The control contained no ion. The relative activity was measured at 65°C using olive oil (emulsified, 1:1 v/v, in 50 mM Tris-HCl buffer, pH 8.0) as substrate. Metal cations play different and important roles in influencing the structure and function of lipases (Gupta et al.., 2004a; Kim et al., 2005). The effect of different metal ions on the purified ARM lipase activity was studied (Figure 29). […] The Ca^2+-binding motif was not found in ARM lipase sequence.

[4] = test system: purified recombinant ARM thermostable lipase; assay: Effect of inhibitors on lipase activity; type: biochemical, Geobacillus sp. strain ARM; settings: pre-incubation 30 min at 30°C, assay at 65°C
Procedure: The control contained no inhibitor. The relative activity was measured at 65°C using olive oil (emulsified, 1:1 v/v, in 50 mM Tris-HCl buffer, pH 8.0) as substrate.

[5] = test system: purified recombinant ARM thermostable lipase; assay: Effect of surfactants on lipase activity; type: biochemical, Geobacillus sp. strain ARM; settings: pre-incubation 30 min at 30°C, assay at 65°C
Procedure: The effect of surfactants on the lipase activity was investigated by pre-incubating the purified enzyme for 30 min at 30°C in Tris-HCl buffer (50 mM, pH 8.0) containing 0.1 and 1% (v/v) of following surfactants (nonionic surfactants): Tween 20, Tween 40, Tween 80, Tween 85, Triton X-100, Triton B1958, Span 20. In the case of SDS (ionic surfactant) concentrations were 1 and 5 mM. The control contained no surfactant. The relative activity was measured at 65°C using olive oil (emulsified, 1:1 v/v, in 50 mM Tris-HCl buffer, pH 8.0) as substrate. The effects of various surfactants on the purified ARM lipase are depicted in Figure 30.

[6] = test system: purified recombinant ARM thermostable lipase; assay: Effect of ionic liquids on lipase hydrolytic activity; type: biochemical, Geobacillus sp. strain ARM; settings: 90% (v/v) ionic liquid, 0 min, without incubation; assay at 65°C
Procedure: (§1) Aliquots of the enzyme were suspended in 90% (v/v) of four different ionic liquids (ILs) properly. Then, the mixture of lipase and ILs was incubated for 0-90 min at 60°C with shaking at 150 rpm. The selected ILs were [Emim][BF4], [Emim][TfO], [Bmim][BF4] and […]. The thermostability was expressed as the remaining lipolytic activity relative to that of the control (without ILs) after incubation at high temperature. The residual activity was measured at 65°C as described before.

[7] = test system: purified recombinant ARM thermostable lipase; assay: Effect of ionic liquids on lipase thermostability at 60°C; type: biochemical, Geobacillus sp. strain ARM; settings: 90% (v/v) ionic liquid, 0-90 min at 60°C, 150 rpm; assay at 65°C
Procedure: as §1

Row | Molecule | remaining lipolytic activity relative to the control (without solvent) [1] | log P [2] | further results
1 | 1-butanol | – | – | effect on lipase activity/stability [1]: dramatically inhibited
2 | 1-propanol | – | – | effect on lipase activity/stability [1]: dramatically inhibited
3 | CCCCCCCCCCO [1-decanol] | 86% | – | –
4 | CCCCCCCCCCCCO [1-dodecanol] | more than 100% | 5 | –
5 | CCCCCCCCCCCCCCCC [1-hexadecane] | 78% | – | –
6 | CCCCCCCCO [1-octanol] | more than 100% | 2.9 | –
7 | CCCCCCCCCCCO [1-undecanol] | 74% | 4.6 | –
8 | CC(O)C(C)O (stereo not shown) [2,3-butanediol] | – | -0.92 | –
9 | CC(C)O [2-propanol] | – | – | effect on lipase activity/stability [1]: dramatically inhibited
10 | [Ca+2] [Ca^2+] | – | – | effect on lipase activity ([3]; 1 and 5 mM ion): stimulated the lipase activity
11 | C[S+](C)[O-] [DMSO] | 62.5% and 62.4% | – | –
12 | O=C(O)CN(CCN(CC(=O)O)CC(=O)O)CC(=O)O [EDTA, ethylene diamine tetra-acetic acid] | – | – | activation of the lipase ([4]; 1 mM): around 20%; activation of the lipase ([4]; 5 mM): more than 60%
13 | CCCCCCCCCCCCOS(=O)(=O)[O-].[Na+] [SDS] | – | – | effect on lipase activity ([5]; 1 and 5 mM (ionic surfactant)): strongly inhibited
14 | [Sr+2] [Sr^2+] | – | – | effect on lipase activity ([3]; 1 mM ion): stimulated the lipase activity
15 | CCCCn1cc[n+](C)c1.F[B-](F)(F)F [[Bmim][BF4]] | – | – | effect on lipase activity [6]: decreased lipase activity
16 | CCCCn1cc[n+](C)c1.F[P-](F)(F)(F)(F)F [[Bmim][PH6]] | – | – | lipase activity relative to the control (without ILs) [6]: up to 120%
17 | CCn1cc[n+](C)c1.F[B-](F)(F)F [[Emim][BF4]] | – | – | effect on lipase thermostability [7]: significant effects on lipase thermostability enhancement; effect on lipase activity [6]: no significant effect
18 | CCn1cc[n+](C)c1.O=S(=O)([O-])C(F)(F)F [[Emim][TfO]] | – | – | effect on lipase thermostability [7]: significant effects on lipase thermostability enhancement; lipase activity relative to the control (without ILs) [6]: up to 120%

Row | Molecule | remaining lipolytic activity relative to the control (without solvent) [1] | log P [2] | further results
19 | CC(C)=O [acetone] | – | -0.208 | effect on lipase activity/stability [1]: dramatically inhibited
20 | CC#N [acetonitrile] | – | -0.394 | effect on lipase activity/stability [1]: dramatically inhibited
21 | c1ccccc1 [benzene] | more than 100% | – | –
22 | OCc1ccccc1 [bnzyl alcohol] | – | – | effect on lipase activity/stability [1]: dramatically inhibited
23 | CCc1ccccc1 [ethylbenzene] | 77% | 3.3 | –
24 | CCCCCCCCCCCCCCCCC [heptadecane] | more than 100% | 8.69 | –
25 | CCCCCCC [heptan] | more than 100% | 4.4 | –
26 | CC(C)CCO [iso-amyl alcohol] | – | 1.3 | effect on lipase activity/stability [1]: dramatically inhibited
27 | CC(C)CO [iso-butanol] | – | 0.79 | effect on lipase activity/stability [1]: dramatically inhibited
28 | CC(C)CC(C)(C)C [iso-octane] | more than 100% | 4.5 | –
29 | CCCCCCCCCCCCCCC [n-pentadecane] | more than 100% | 7.71 | –
30 | CCCCCCCCCCCCCC [n-tetradecane] | more than 100% | 7 | –
31 | Cc1ccccc1C [o-xylene] | more than 100% | – | –
32 | Cc1ccccc1 [toluene] | more than 100% | – | –
33 | Span 20 | – | – | effect on lipase activity ([5]; 0.1 and 1% (v/v) surfactant): not affected
34 | Triton X-100 | – | – | increase in lipase activity ([5]; 1% surfactant): 20%
35 | hexanes | more than 100% | 3.6 | –
